Among the test systems are A549; SW-620; CCRF-CEM; A498; OVCAR-5; DU-145; OVCAR-3; KM12; SF-539; UACC-62; EKVX; HCC 2998; SNB-75; NCI-H460; OVCAR-8; HL-60.
Holding throughout (assay): growth of human tumour cells (NCI), 48 h

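Step 1: Grow cells in 96-well plates. Step 2: Expose to compound for 48 hours at 5 concentrations. Step 3: Interpolate endpoints linearly; if unreached, use highest concentration. GI50: concentration for 50% inhibition of growth.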 Active and inactive are the calls of the source. No stated cut-off is given here; in the data, active = GI50 up to about 1.1 µM and inactive = higher.

Turning to `CC(=O)NC1C(OCc2ccccc2)OC(CO)C(O)C1OCC(=O)N[C@@H](C)C(=O)N[C@H](CCC(=O)NCCCCNc1c2ccccc2nc2cccc([N+](=O)[O-])c12)C(N)=O` (some centres not stated), the GI50 in the assay with A549 was 0.959 µM (active); with SW-620, 0.618 µM (active); with CCRF-CEM, 4.11 µM (inactive); with A498, 2.16 µM (inactive); in the assay on OVCAR-5, 3.56 µM (inactive); in the assay on DU-145, 1.91 µM (inactive). Moreover, the GI50 with OVCAR-3 is 3.5 µM (inactive); in the assay on KM12, 1.83 µM (inactive); in the assay with SF-539, 0.731 µM (active); in the assay on UACC-62, 1.51 µM (inactive); with EKVX, 2.07 µM (inactive); in the assay on HCC 2998 it was 0.682 µM (active). Also, the GI50 is 1.79 µM (inactive) in the assay with SNB-75, 0.48 µM (active) with NCI-H460 and 1.55 µM (inactive) in the assay with OVCAR-8.
Take `Brc1ccc(-c2cn3ccncc3n2)cc1`: the GI50 in the assay on A549, with CCRF-CEM, with A498, in the assay with OVCAR-5, with DU-145 and in the assay with OVCAR-3 was > 100 µM (inactive) in each case. Besides, the GI50 is > 100 µM (inactive) with KM12; > 100 µM (inactive) in the assay with SF-539; > 100 µM (inactive) with UACC-62; 63.8 µM (inactive) in the assay with EKVX; > 100 µM (inactive) in the assay with SNB-75; > 100 µM (inactive) with NCI-H460. Moreover, the GI50 in the assay on OVCAR-8 was > 100 µM (inactive).
Consider `COc1cc2c3c(n(C)c(=O)c2cc1OC)-c1cc2c(cc1/C3=C\CCCI)OCO2`, for which the GI50 in the assay on A549 is 38.9 µM (inactive); with SW-620 it was 0.533 µM (active); with HL-60, > 47.1 µM (inactive); in the assay on CCRF-CEM, 1.29 µM (inactive); in the assay with A498, 2.38 µM (inactive); in the assay with OVCAR-5, > 4.65 µM (inactive). In addition, the GI50 is 1.17 µM (inactive) in the assay with DU-145; > 61.1 µM (inactive) in the assay on OVCAR-3; > 87.9 µM (inactive) with KM12; 3.94 µM (inactive) in the assay with SF-539; 4.49 µM (inactive) with UACC-62; 30.1 µM (inactive) in the assay with EKVX. For the same compound, the GI50 with NCI-H460 is 5.42 µM (inactive); in the assay on OVCAR-8, 1.73 µM (inactive).
In the case of `CCCCCCCCCCCCCCCCOCC(CCl)OP(=O)(O)OP(=O)(O)OCC1OC(n2ccc(N)nc2=O)C(O)C1O` (configuration not stated), the GI50 with A549, in the assay with SW-620, in the assay on HL-60, in the assay with CCRF-CEM, with A498 and in the assay with OVCAR-5 was > 100 µM (inactive) each time. Also, the GI50 in the assay with OVCAR-3, in the assay with KM12, in the assay on SF-539, in the assay with UACC-62, with EKVX and in the assay with HCC 2998 was > 100 µM (inactive) throughout. For the same compound, the GI50 is 6.07 µM (inactive) in the assay with SNB-75, > 100 µM (inactive) in the assay with NCI-H460 and > 100 µM (inactive) in the assay on OVCAR-8.
Consider `O=C1c2ccccc2-c2nc(-c3ccncc3)cc3c2c1nc1ccccc13`, for which the GI50 was 13.6 µM (inactive) with A549; 24.3 µM (inactive) in the assay with SW-620; 11 µM (inactive) in the assay on HL-60; 9.33 µM (inactive) with CCRF-CEM; 18.7 µM (inactive) in the assay on OVCAR-5; 14.8 µM (inactive) in the assay on DU-145. Moreover, the GI50 in the assay with OVCAR-3 was 1.52 µM (inactive); with KM12, 11.8 µM (inactive); in the assay with SF-539, 22 µM (inactive); with UACC-62, 13.4 µM (inactive); in the assay on EKVX it was 34.2 µM (inactive); in the assay with HCC 2998, 18.7 µM (inactive). For the same compound, the GI50 was 32.5 µM (inactive) in the assay on SNB-75, 10.5 µM (inactive) in the assay with NCI-H460 and 25.2 µM (inactive) with OVCAR-8.
For the compound `O=C(O)c1cc2cc(c1)/N=C/c1ccccc1OCc1cccc(n1)COc1ccccc1/C=N/2`, the GI50 with A549 was > 25 µM (inactive); in the assay on SW-620, 9.68 µM (inactive); in the assay with HL-60, 12.2 µM (inactive); in the assay on CCRF-CEM it was 9.71 µM (inactive); with A498, > 25 µM (inactive); in the assay on OVCAR-5, > 25 µM (inactive). Also, the GI50 is > 25 µM (inactive) in the assay with DU-145; 5.11 µM (inactive) in the assay on OVCAR-3; 13 µM (inactive) in the assay with KM12; 8.17 µM (inactive) in the assay with SF-539; 8.45 µM (inactive) in the assay with UACC-62; > 25 µM (inactive) with EKVX. Also, the GI50 in the assay on SNB-75, in the assay on NCI-H460 and in the assay with OVCAR-8 was > 25 µM (inactive) in each case.
On to `CCOC(=O)c1cc(=O)c2ccnc3c2n1CCS3`, for which the GI50 is 69.8 µM (inactive) in the assay on A549; > 100 µM (inactive) in the assay on SW-620; > 100 µM (inactive) in the assay with HL-60; 48.5 µM (inactive) in the assay with CCRF-CEM; > 100 µM (inactive) with A498; > 100 µM (inactive) in the assay with OVCAR-5. Further, the GI50 was > 100 µM (inactive) in the assay on DU-145; 61.7 µM (inactive) with OVCAR-3; 40.9 µM (inactive) in the assay on KM12; > 100 µM (inactive) in the assay with SF-539; > 100 µM (inactive) in the assay with UACC-62; > 100 µM (inactive) in the assay with EKVX. The results for the GI50 in the assay with SNB-75, in the assay with NCI-H460 and with OVCAR-8 were 8.3 µM (inactive), > 100 µM (inactive) and > 100 µM (inactive), respectively.
Regarding `O=C1NC(N2CCCCC2)=N/C1=C\c1ccc(Cl)cc1`, the GI50 with A549 was 38.5 µM (inactive); in the assay on SW-620, 68.4 µM (inactive); in the assay with HL-60, > 100 µM (inactive); in the assay on CCRF-CEM it was 39.7 µM (inactive); in the assay with OVCAR-5, > 100 µM (inactive); with DU-145 it was 44.1 µM (inactive). In addition, the GI50 in the assay with OVCAR-3 is 26.4 µM (inactive); in the assay on KM12, 25.1 µM (inactive); in the assay on SF-539, 94 µM (inactive); in the assay on UACC-62, 26.5 µM (inactive); in the assay with EKVX it was 26.3 µM (inactive); in the assay on HCC 2998 it was 19.8 µM (inactive). The GI50 in the assay with OVCAR-8 is 20.2 µM (inactive).
Regarding `O=c1[nH]c(=O)n(C2CC(O)C(CO)O2)cc1OCCCc1ccccc1` (configuration not stated), the GI50 with A549, in the assay with HL-60, with CCRF-CEM, in the assay on OVCAR-5, in the assay with DU-145 and in the assay on OVCAR-3 was > 100 µM (inactive) throughout. For the same compound, the GI50 in the assay with KM12, with UACC-62, in the assay with EKVX, in the assay with SNB-75, in the assay on NCI-H460 and in the assay on OVCAR-8 was > 100 µM (inactive) each time.
Regarding `O=C(c1ccc(Cl)cc1)C(O)c1ccc(Cl)cc1` (configuration not stated), the GI50 is 59.7 µM (inactive) in the assay on A549; > 100 µM (inactive) in the assay on SW-620; 32.5 µM (inactive) with HL-60; > 100 µM (inactive) in the assay with CCRF-CEM; > 100 µM (inactive) in the assay on OVCAR-5; 92 µM (inactive) in the assay with DU-145. For the same compound, the GI50 was 43.8 µM (inactive) with OVCAR-3; 41.6 µM (inactive) with KM12; 65.5 µM (inactive) with SF-539; 42 µM (inactive) in the assay on UACC-62; 34.2 µM (inactive) in the assay on EKVX; > 100 µM (inactive) in the assay on HCC 2998. The values for the GI50 in the assay on SNB-75, in the assay on NCI-H460 and with OVCAR-8 were > 100 µM (inactive), > 100 µM (inactive) and 63.2 µM (inactive), respectively.
Regarding `O=C(Nc1ccn(C2CC(O)C(CO)O2)c(=O)n1)c1ccccc1` (configuration not stated), the GI50 in the assay on A549, with SW-620, in the assay with HL-60, with CCRF-CEM, with A498 and in the assay with OVCAR-5 was > 100 µM (inactive) in each case. The GI50 with DU-145, in the assay on OVCAR-3, with KM12, with SF-539, in the assay with UACC-62 and in the assay on EKVX was > 100 µM (inactive) throughout. In addition, the GI50 with SNB-75, in the assay with NCI-H460 and in the assay on OVCAR-8 was > 100 µM (inactive) each time.
Regarding `CC(C)CC1c2[nH]c3ccccc3c2C[C@H]2C(=O)NC(Cc3c[nH]c4ccccc34)C(=O)N12` (some centres not stated), the GI50 with A549 was 12.5 µM (inactive); in the assay with SW-620, 18.1 µM (inactive); in the assay with HL-60 it was 11.8 µM (inactive); with A498 it was 16.8 µM (inactive); in the assay with OVCAR-5, 24.7 µM (inactive); in the assay with DU-145, 20.3 µM (inactive). In addition, the GI50 is 7.74 µM (inactive) with OVCAR-3; 13.4 µM (inactive) in the assay on KM12; 16 µM (inactive) in the assay with UACC-62; 16 µM (inactive) in the assay with EKVX; 15.9 µM (inactive) in the assay on OVCAR-8.
As for `CSc1ncc2c(n1)-c1ccccc1OC2N1CCOCC1` (configuration not stated), the GI50 in the assay with A549 was 97.7 µM (inactive); with SW-620, > 100 µM (inactive); in the assay on HL-60, 27.3 µM (inactive); in the assay with CCRF-CEM, 47.1 µM (inactive); with A498, 21.3 µM (inactive); in the assay on OVCAR-5 it was > 100 µM (inactive). Besides, the GI50 with DU-145 was > 100 µM (inactive); in the assay with OVCAR-3, 56.2 µM (inactive); in the assay with KM12, 53.3 µM (inactive); with SF-539 it was > 100 µM (inactive); in the assay with UACC-62 it was 28.1 µM (inactive); in the assay with EKVX, 76 µM (inactive). The GI50 in the assay on SNB-75 was 44.5 µM (inactive); with NCI-H460 it was 41.5 µM (inactive); in the assay on OVCAR-8 it was > 100 µM (inactive).
`N=c1oc2ccccc2cc1-c1nc2ccccc2c(=O)[nH]1`: the GI50 in the assay on A549 is 78.3 µM (inactive); in the assay on SW-620, 72.3 µM (inactive); with HL-60, 45.7 µM (inactive); with CCRF-CEM, 79.4 µM (inactive); in the assay with OVCAR-5 it was > 100 µM (inactive); with DU-145 it was > 100 µM (inactive). Also, the GI50 with KM12 was 39.8 µM (inactive); in the assay on SF-539, 60.4 µM (inactive); in the assay with UACC-62 it was 27.8 µM (inactive); in the assay with EKVX it was 35.6 µM (inactive); in the assay with HCC 2998, 90.2 µM (inactive); with SNB-75, 2.72 µM (inactive). For the same compound, the results for the GI50 in the assay with NCI-H460 and in the assay on OVCAR-8 were 64.7 µM (inactive) and 60.3 µM (inactive), respectively.

Values taken from ChEMBL document CHEMBL1201862, “PubChem BioAssay data set” (2004).
